# Experimental data reported in US12421225B2, “Heteroaromatic amide derivative and medicament containing the same” (KAKEN PHARMACEUTICAL CO., LTD., priority 2018, dated 2025).
# Target: human Nav1.7 (Homo sapiens (Human), UniProt Q15858)
# Assay: Human Nav1.7 inhibitory activity evaluation (automated patch clamp QPatch16X, HEK293A cells stably expressing human Nav1.7 and human Navβ1)
# Type: cell-based
# Conditions: human Nav1.7, automated patch clamp
# Procedure, shortened: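 QPatch16X whole-cell recordings at room temperature from HEK293A cells stably expressing human Nav1.7 with Navβ1, CsF-based internal solution, pH 7.4 external, 0.1% DMSO. From −100 mV holding, protocol included a 15 s hold at a potential inactivating ~30-40% of channels; IC50 from inward current at the second −10 mV pulse.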
# Chain of human Nav1.7 (Q15858 whole entry): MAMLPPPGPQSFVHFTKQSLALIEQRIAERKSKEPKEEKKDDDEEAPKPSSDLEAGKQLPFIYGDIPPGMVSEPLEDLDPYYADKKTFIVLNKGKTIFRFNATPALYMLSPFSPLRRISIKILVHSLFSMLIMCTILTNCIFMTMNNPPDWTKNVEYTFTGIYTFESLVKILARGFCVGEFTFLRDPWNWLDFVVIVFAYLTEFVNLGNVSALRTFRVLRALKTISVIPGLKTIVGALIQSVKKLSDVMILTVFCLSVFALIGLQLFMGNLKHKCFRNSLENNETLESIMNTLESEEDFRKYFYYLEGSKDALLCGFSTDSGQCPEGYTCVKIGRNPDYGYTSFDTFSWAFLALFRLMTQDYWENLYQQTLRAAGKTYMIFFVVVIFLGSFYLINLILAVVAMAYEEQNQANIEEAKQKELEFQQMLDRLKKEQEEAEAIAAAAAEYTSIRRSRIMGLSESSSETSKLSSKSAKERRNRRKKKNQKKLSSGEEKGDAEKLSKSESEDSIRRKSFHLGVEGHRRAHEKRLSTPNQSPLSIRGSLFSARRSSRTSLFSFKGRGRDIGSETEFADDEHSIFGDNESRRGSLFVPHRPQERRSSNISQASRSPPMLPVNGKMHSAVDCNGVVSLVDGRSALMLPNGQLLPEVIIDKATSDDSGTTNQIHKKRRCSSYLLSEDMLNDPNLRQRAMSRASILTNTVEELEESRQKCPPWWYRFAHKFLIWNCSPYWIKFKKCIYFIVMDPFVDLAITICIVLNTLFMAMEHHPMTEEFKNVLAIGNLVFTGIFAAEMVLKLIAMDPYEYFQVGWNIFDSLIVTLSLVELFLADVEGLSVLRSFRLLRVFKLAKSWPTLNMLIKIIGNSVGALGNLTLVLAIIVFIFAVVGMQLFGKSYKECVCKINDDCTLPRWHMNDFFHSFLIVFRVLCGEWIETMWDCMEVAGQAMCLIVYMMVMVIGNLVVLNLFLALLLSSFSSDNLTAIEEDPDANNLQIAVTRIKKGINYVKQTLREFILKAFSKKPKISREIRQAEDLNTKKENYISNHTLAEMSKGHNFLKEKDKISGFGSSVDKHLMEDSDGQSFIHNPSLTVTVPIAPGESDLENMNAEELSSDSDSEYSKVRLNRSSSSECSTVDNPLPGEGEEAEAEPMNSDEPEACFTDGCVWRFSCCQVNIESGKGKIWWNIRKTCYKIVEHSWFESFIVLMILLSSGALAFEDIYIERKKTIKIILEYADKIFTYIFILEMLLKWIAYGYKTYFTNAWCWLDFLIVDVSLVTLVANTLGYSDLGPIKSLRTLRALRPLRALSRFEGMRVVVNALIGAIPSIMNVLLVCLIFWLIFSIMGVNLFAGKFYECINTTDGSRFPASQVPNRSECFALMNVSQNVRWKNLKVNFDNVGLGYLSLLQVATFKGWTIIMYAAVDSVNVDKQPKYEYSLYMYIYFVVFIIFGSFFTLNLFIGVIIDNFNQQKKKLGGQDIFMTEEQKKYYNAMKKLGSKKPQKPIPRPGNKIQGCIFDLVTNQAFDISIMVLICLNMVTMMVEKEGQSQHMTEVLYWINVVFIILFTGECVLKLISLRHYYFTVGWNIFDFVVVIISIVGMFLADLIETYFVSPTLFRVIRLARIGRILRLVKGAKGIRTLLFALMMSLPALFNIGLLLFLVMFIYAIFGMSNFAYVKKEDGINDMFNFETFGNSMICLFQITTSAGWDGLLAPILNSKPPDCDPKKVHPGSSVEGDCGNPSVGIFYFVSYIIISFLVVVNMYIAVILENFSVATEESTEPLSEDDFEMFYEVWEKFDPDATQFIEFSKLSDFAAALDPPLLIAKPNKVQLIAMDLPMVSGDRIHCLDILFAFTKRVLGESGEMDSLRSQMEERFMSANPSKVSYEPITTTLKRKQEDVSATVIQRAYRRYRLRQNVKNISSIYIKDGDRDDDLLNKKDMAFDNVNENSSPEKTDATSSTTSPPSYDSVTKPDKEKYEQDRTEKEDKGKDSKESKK
# Chain of human Nav1.7 (Q07699 19-218 partner): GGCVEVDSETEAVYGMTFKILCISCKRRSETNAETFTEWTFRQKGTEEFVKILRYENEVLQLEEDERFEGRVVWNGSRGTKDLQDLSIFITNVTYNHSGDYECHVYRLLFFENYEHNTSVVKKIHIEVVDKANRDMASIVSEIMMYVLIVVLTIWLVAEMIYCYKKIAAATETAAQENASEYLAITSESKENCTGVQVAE
row,SMILES,IC50 [µM]
1,O=C(N[C@H]1COc2ccc(C(F)(F)F)cc2C1O)c1cc2n(n1)CCC(COCC1CC1)O2 (some centres unmarked) [Example 559],< 10
2,O=C(N[C@H]1COc2ccc(C(F)(F)F)cc2C1O)c1cc2n(n1)CCC(COCC(F)(F)F)O2 (some centres unmarked) [Example 561],< 10
3,N#Cc1ccc2c(c1)C[C@@H](NC(=O)c1cc3n(n1)CCC(CC(F)(F)F)O3)CO2 (some centres unmarked) [Example 562],< 10
4,O=C(N[C@H]1COc2ccc(CC(F)F)cc2C1)c1cc2n(n1)CC(CC1CCOCC1)O2 (some centres unmarked) [Example 564],< 10
5,COC1c2cc(C(F)(F)F)ccc2OC[C@@H]1NC(=O)c1cc2n(n1)CC(COCC(F)(F)F)O2 (some centres unmarked) [Example 569],< 1
6,O=C(NC1COc2ccc(Cl)cc2C1O)c1cc2n(n1)CCC(COCC1CC1)O2 (centres unmarked) [Example 571],< 10
7,N#Cc1ccc2c(c1)C(O)C(NC(=O)c1cc3n(n1)CCC(c1ccccc1F)O3)CO2 (centres unmarked) [Example 573],< 10
8,CCC1(O)CCn2nc(C(=O)N[C@H]3COc4ccc(C(F)(F)F)cc4C3)cc2OC1 (some centres unmarked) [Example 582],< 10
9,N#Cc1ccc2c(c1)C[C@@H](NC(=O)c1cc3n(n1)CCC(C1CCOCC1)O3)CO2 (some centres unmarked) [Example 585],< 10
10,O=C(N[C@H]1COc2ccc(C(F)(F)F)cc2C1O)c1cc2n(n1)CC(CSCC(F)(F)F)O2 (some centres unmarked) [Example 587],< 10
11,O=C(N[C@H]1COc2ccc(C(F)(F)F)cc2C1O)c1cc2n(n1)CC(CCOCC(F)(F)F)O2 (some centres unmarked) [Example 589],< 10
12,O=C(N[C@H]1COc2ccc(C(F)(F)F)cc2C1O)c1cc2n(n1)CC(CCCOCC(F)(F)F)O2 (some centres unmarked) [Example 592],< 10
13,O=C(N[C@H]1COc2ccc(C(F)(F)F)cc2C1O)c1cc2n(n1)CC(CCCOCC(F)F)O2 (some centres unmarked) [Example 609],< 10
14,O=C(N[C@H]1COc2ccc(C(F)(F)F)cc2C1)c1cc2n(n1)CCC(C1CCOC1)O2 (some centres unmarked) [Example 612],< 10
15,CC1(COCC2CC2)Cn2nc(C(=O)N[C@H]3COc4ccc(C#N)cc4C3)cc2O1 (some centres unmarked) [Example 618],< 10
16,CC1(COCC2CC2)Cn2nc(C(=O)N[C@H]3COc4ccc(CC(F)F)cc4C3)cc2O1 (some centres unmarked) [Example 619],< 10
17,N#Cc1ccc2c(c1)C[C@@H](NC(=O)c1cc3n(n1)CC(CCC1CCOCC1)O3)CO2 (some centres unmarked) [Example 623],< 1
18,O=C(N[C@H]1COc2ccc(C(F)(F)F)cc2C1F)c1cc2n(n1)CCC(COCC(F)F)O2 (some centres unmarked) [Example 624],< 1
19,O=C(N[C@H]1COc2ccc(C(F)(F)F)cc2C1F)c1cc2n(n1)CCN(CCOC1CCC1)C2 (some centres unmarked) [Example 625],< 1
20,O=C(NC1COc2ccc(F)c(F)c2C1)c1cc2n(n1)CCC(C(F)(F)F)O2 (centres unmarked) [Example 626],< 10
21,O=C(NC1COc2ccc(F)c(F)c2C1)c1cc2n(n1)CCC(COCC(F)(F)F)O2 (centres unmarked) [Example 627],< 10
22,O=C(NC1COc2ccc(F)c(F)c2C1)c1cc2n(n1)CC(CCCOCC(F)(F)F)O2 (centres unmarked) [Example 628],< 1
23,O=C(NC1COc2ccc(F)c(F)c2C1)c1cc2n(n1)CC(CCOCC(F)(F)F)O2 (centres unmarked) [Example 629],< 1
24,O=C(N[C@H]1COc2ccc(COCC(F)(F)F)cc2C1)c1cc2n(n1)CCC(C1CCOC1)O2 (some centres unmarked) [Example 630],< 1
25,O=C(N[C@H]1COc2ccc(COCC(F)(F)F)cc2C1)c1cc2n(n1)CCC(C1COCCO1)O2 (some centres unmarked) [Example 631],< 1
26,O=C(N[C@H]1COc2ccc(COCC(F)(F)F)cc2C1)c1cc2n(n1)CCC(C(F)(F)F)CO2 (some centres unmarked) [Example 632],< 1

row,SMILES,IC50 [µM]
1,O=C(N[C@H]1COc2ccc(CC(F)F)cc2C1)c1cc2n(n1)CCC(C(F)(F)F)CO2 (some centres unmarked) [Example 633],< 1
2,O=C(N[C@H]1COc2ccc(C(F)(F)F)cc2C1F)c1cc2n(n1)CCC(COCC(F)(F)F)CO2 (some centres unmarked) [Example 634],< 1
3,O=C(N[C@H]1COc2ccc(COCC(F)(F)F)cc2C1)c1cc2n(n1)CCC(COCC(F)F)O2 (some centres unmarked) [Example 635],< 1
4,O=C(N[C@H]1COc2ccc(C(F)(F)F)cc2C1F)c1cc2n(n1)CCN(C1CCOCC1)C2 (some centres unmarked) [Example 637],< 10
5,O=C(N[C@H]1COc2ccc(COCC(F)(F)F)cc2C1)c1cc2n(n1)CCC(C1COCCO1)O2 (some centres unmarked) [Example 638],< 10
6,O=C(NC1COc2ccc(F)c(F)c2C1)c1cc2n(n1)CC(CCOCC1CC1)O2 (centres unmarked) [Example 639],< 1
7,O=C(NC1COc2ccc(F)c(F)c2C1)c1cc2n(n1)CC(CCCOCC(F)F)O2 (centres unmarked) [Example 640],< 1
8,O=C(N[C@H]1COc2ccc(C(F)(F)F)cc2C1F)c1cc2n(n1)CCN(CC1CCOCC1)C2 (some centres unmarked) [Example 642],< 10
9,O=C(N[C@H]1COc2ccc(C(F)(F)F)cc2C1F)c1cc2n(n1)CCN(C1COC1)C2 (some centres unmarked) [Example 643],< 10
10,O=C(N[C@H]1COc2ccc(C(F)(F)F)cc2C1)c1cc2n(n1)CCN(CCOCC(F)(F)F)C2 [Example 644],< 1
11,O=C(N[C@H]1COc2ccc(C(F)(F)F)cc2C1F)c1cc2n(n1)CCN(CCOCC(F)(F)F)C2 (some centres unmarked) [Example 645],< 1
12,O=C(N[C@H]1COc2ccc(C(F)(F)F)cc2C1F)c1cc2n(n1)CCN(CC1CCO1)C2 (some centres unmarked) [Example 646],< 1
13,O=C(N[C@H]1COc2ccc(C(F)(F)F)cc2C1F)c1cc2n(n1)CCN(CCC(F)(F)F)C2 (some centres unmarked) [Example 647],< 1
14,N#Cc1ccc2c(c1)C(F)[C@@H](NC(=O)c1cc3n(n1)CCC(C(F)(F)F)O3)CO2 (some centres unmarked) [Example 648],< 10
15,N#Cc1ccc2c(c1)C(F)[C@@H](NC(=O)c1cc3n(n1)CCC(C(F)(F)F)CO3)CO2 (some centres unmarked) [Example 649],< 10
16,N#Cc1ccc2c(c1)C(F)[C@@H](NC(=O)c1cc3n(n1)CC(CCOCC1CC1)O3)CO2 (some centres unmarked) [Example 650],< 1
17,O=C(N[C@H]1COc2ccc(COCC(F)(F)F)cc2C1)c1cc2n(n1)CCC(C1CCCO1)O2 (some centres unmarked) [Example 651],< 1
18,O=C(N[C@H]1COc2ccc(C(F)(F)F)cc2C1O)c1cc2n(n1)CCN(CCOCC1CC1)C2 (some centres unmarked) [Example 652],< 10
19,O=C(N[C@H]1COc2ccc(C(F)(F)F)cc2C1)c1cc2n(n1)CCN(CC1CCOCC1)C2 [Example 653],< 10
20,O=C(N[C@H]1COc2ccc(C(F)(F)F)cc2C1F)c1cc2n(n1)CCN(CCOCC1CC1)C2 (some centres unmarked) [Example 654],< 1
21,O=C(N[C@H]1COc2ccc(COCC(F)(F)F)cc2C1)c1cc2n(n1)CCC(CC1CCOCC1)O2 (some centres unmarked) [Example 655],< 1
22,CCC1(O)CCn2nc(C(=O)N[C@H]3COc4ccc(C(F)(F)F)cc4C3F)cc2OC1 (some centres unmarked) [Example 656],< 10
23,O=C(N[C@H]1COc2ccc(C(F)(F)F)cc2C1)c1cc2n(n1)CC(COCCOCC(F)(F)F)O2 (some centres unmarked) [Example 657],< 1
24,O=C(N[C@H]1COc2ccc(Cl)cc2C1)c1cc2n(n1)CC(COCCOCC(F)(F)F)O2 (some centres unmarked) [Example 658],< 1
25,N#Cc1ccc2c(c1)C[C@@H](NC(=O)c1cc3n(n1)CC(COCCOCC(F)(F)F)O3)CO2 (some centres unmarked) [Example 659],< 10

# More lines, now with the values ahead:
row,IC50 [µM],SMILES
1,< 1,O=C(N[C@H]1COc2ccc(CC(F)F)cc2C1)c1cc2n(n1)CCC(COCC(F)(F)F)CO2 (some centres unmarked) [Example 557]
2,< 1,O=C(N[C@H]1COc2ccc(C(F)(F)F)cc2C1O)c1cc2n(n1)CCC(COCC1CC1)O2 (some centres unmarked) [Example 558]
3,< 1,O=C(N[C@H]1COc2ccc(C(F)(F)F)cc2C1O)c1cc2n(n1)CC(COCC1CC1)O2 (some centres unmarked) [Example 560]
4,< 1,N#Cc1ccc2c(c1)C[C@@H](NC(=O)c1cc3n(n1)CC(CC1CCOCC1)O3)CO2 (some centres unmarked) [Example 565]
5,< 1,O=C(N[C@H]1COc2ccc(I)cc2C1)c1cc2n(n1)CCC(C(F)F)O2 (some centres unmarked) [Example 566]
6,< 1,O=C(N[C@H]1COc2ccc(CC(F)F)cc2C1)c1cc2n(n1)CCC(COCC1(F)CC1)O2 (some centres unmarked) [Example 567]
7,< 1,COC1c2cc(C(F)(F)F)ccc2OC[C@@H]1NC(=O)c1cc2n(n1)CCC(COCC(F)(F)F)O2 (some centres unmarked) [Example 570]
8,< 1,O=C(N[C@H]1COc2cccc(Cl)c2C1)c1cc2n(n1)CCC(COCC(F)(F)F)O2 (some centres unmarked) [Example 574]
9,< 1,Cc1cccc(-c2c(C(=O)N[C@H]3COc4ccc(C(F)(F)F)cc4C3O)nn3c2COCC3)n1 (some centres unmarked) [Example 580]
10,< 1,CCc1cccc(-c2c(C(=O)N[C@H]3COc4ccc(C(F)(F)F)cc4C3O)nn3c2COCC3)n1 (some centres unmarked) [Example 581]
11,< 1,O=C(N[C@H]1COc2ccc(C(F)(F)F)cc2C1)c1cc2n(n1)CCC(C1CCOCC1)O2 (some centres unmarked) [Example 583]
12,< 1,O=C(N[C@H]1COc2ccc(Cl)cc2C1)c1cc2n(n1)CCC(C1CCOCC1)O2 (some centres unmarked) [Example 584]
13,< 1,O=C(N[C@H]1COc2ccc(CC(F)F)cc2C1)c1cc2n(n1)CCC(C1CCOCC1)O2 (some centres unmarked) [Example 586]
14,< 1,O=C(N[C@H]1COc2ccc(C(F)(F)F)cc2C1O)c1cc2n(n1)CC(CCOCC(F)(F)F)O2 (some centres unmarked) [Example 588]
15,< 1,O=C(N[C@H]1COc2ccc(C(F)(F)F)cc2C1O)c1cc2n(n1)CC(CCCOCC(F)(F)F)O2 (some centres unmarked) [Example 591]
16,< 1,O=C(N[C@H]1COc2ccc(C(F)(F)F)cc2C1O)c1cc2n(n1)CC(CCOCC1CC1)O2 (some centres unmarked) [Example 595]
17,< 1,CCC1CCn2nc(C(=O)N[C@H]3COc4ccc(C(F)(F)F)cc4C3O)cc2O1 (some centres unmarked) [Example 599]
18,< 1,O=C(N[C@H]1COc2ccc(COCC(F)(F)F)cc2C1)c1cc2n(n1)CCC(C1CCOCC1)O2 (some centres unmarked) [Example 606]
19,< 1,O=C(N[C@H]1COc2ccc(C(F)(F)F)cc2C1O)c1cc2n(n1)CC(CCCOCC(F)F)O2 (some centres unmarked) [Example 607]
20,< 1,O=C(N[C@H]1COc2ccc(Cl)cc2C1)c1cc2n(n1)CCC(C1CCOC1)O2 (some centres unmarked) [Example 611]
21,< 1,O=C(N[C@H]1COc2ccc(C(F)(F)F)cc2C1F)c1cc2n(n1)CCC(C1CCOC1)O2 (some centres unmarked) [Example 613]
22,< 1,O=C(N[C@H]1COc2ccc(C(F)(F)F)cc2C1)c1cc2n(n1)CCC(C1COCCO1)O2 (some centres unmarked) [Example 620]
23,< 1,COC1c2cc(C(F)(F)F)ccc2OC[C@@H]1NC(=O)c1cc2n(n1)CC(CCOCC(F)(F)F)O2 (some centres unmarked) [Example 621]
